Converted amounts (≈) assume the structure as drawn. Read-outs that look alike come from different tables or passages of the source.
Legend:
MRSA ATCC 33591 [1] = test: microbe, parasite or virus in culture; type: cell-based, Staphylococcus aureus; conditions: Staphylococcus aureus, MRSA ATCC 33591, read-out: Minimum inhibitory concentration, MIC
Method: An initial inoculum of mid-log phase 10^7 CFU/mL was used and MIC experiment was performed as described earlier. For serum/plasma stability assay a method as described previously was used with slight modifications. Briefly, 50 μL MHB medium containing desired concentration of test peptidomimetics was incubated with 50 µL mice plasma/fetal bovine serum for 3 h at 37 °C. After incubation, a 10 μL aliquot was taken out for MIC determination as described above. For the experiment, mid-log phase 2–5 × 10^5 CFU/mL were used as initial inoculum. For the growth control wells, an equivalent amount of plasma/FBS in the medium was also added to evaluate their effect on the viability of cells. A slight decrease in OD600 of cells incubated with mice plasma was observed compared to untreated growth control in MHB alone. The experiments were repeated on two different days and reproducible MIC values were observed.

MRSA ATCC 33591 biofilm = test: Biofilm formation inhibition, crystal violet (CV) assay; type: cell-based, Staphylococcus aureus; conditions: 24 h biofilm formation inhibition, 2.5 μg/mL
Method: For the experiment, a protocol as described previously was used with slight modifications. Briefly, desired concentrations of the test agents in PBS were added to the wells of a 96-well plate (100 μL). Thereafter, overnight grown stationary phase MRSA ATCC 33591 culture (~4 × 10^5 CFU/mL) in TSB medium (supplemented with 0.25% glucose and 0.5% NaCl) was added to the 96-well plates (100 μL). The plates were incubated at 37 °C without shaking for 24 h. After 24 h, the used medium was discarded and the biofilms formed were washed with PBS once. Subsequently, CV and AB assays were performed to quantify biomass and viability respectively, as described below:
For CV assay after washing the biofilms, the plates were heat fixed at 60 °C for 1 h and 0.1% aqueous CV solution (200 μL) was added to the wells. After 15 min incubation, excess CV was washed off and biomass adhered CV was dissolved in 33% glacial acetic acid (200 μL). The plates were kept at room temperature for 15 min. […] To quantify CV associated biomass, the absorbance was read at 570 nm.
The experiments were repeated on two different days and on each day 6 wells were used for a single treatment. […] Corresponding to CV and AB assay the viability of cells upon treatment was also evaluated. […] The agar plates were incubated at 37 °C for 16–24 h and CFUs were counted. […]

MRSA ATCC 33591 [2] = test: Membrane depolarization assay, DiSC3(5); type: cell-based, Staphylococcus aureus; conditions: for % depolarization relative to melittin control (10 μM, set as 100%): 2 min, DiSC3(5), HEPES-glucose buffer pH 7.2, 37 °C, mean ± S.D., two days
Method: The cytoplasmic membrane depolarization in MRSA ATCC 33591 strain was measured using membrane potential sensitive dye 3,3′-dipropylthiacarbocyanine iodide (DiSC3(5)) with a protocol described previously with slight modifications[23],[48]. Briefly, exponential phase cells grown in MHB were harvested by centrifugation, washed and re-suspended in respiration buffer (5 mM HEPES, 20 mM glucose, pH 7.2) to 2.5 × 10^6 CFU/mL. The cells were divided into 1 mL aliquots and incubated with 3.6 μM of DiSC3(5) (in dark) for 30 min to get steady baseline fluorescence intensity. The dye-loaded cells (800 μL) were then treated with peptidomimetics at respective 1× and 4× MIC concentrations (2–20 μL) and consequent fluorescence increase after 2 min of addition was measured in a Shimadzu RF-5301 PC spectrofluorimeter. As controls IL, melittin and VAN were also assayed under identical conditions. The samples were excited at 622 nm and emission was recorded between 650–700 nm with 3 nm slit width for both excitation and emission. The temperature was maintained at 37 °C throughout the experiment. Depolarization kinetics was measured at 4 × MIC of test agents for 5 min. The experiment was repeated on two different days and for Fig. 3 panel (A) mean ± S.D. data for % depolarization relative to melittin control (10 μM) set as 100% is presented here. For panel (B) representative data is shown here. The viability of dye-loaded cells corresponding to depolarization experiment at 4 × MIC concentration was also measured by plating the diluted aliquots onto BHI agar plates.

MRSA ATCC 33591 [3] = test: Cell viability corresponding to calcein leakage experiment; type: cell-based, Staphylococcus aureus; conditions: calcein-loaded cells in PBS, 4 × MIC (melittin 10 μM), 2 h incubation
Method: To assess the effect of designed peptidomimetics on membrane integrity of MRSA ATCC 33591 strain a calcein-AM dye release experiment was performed using the protocol described previously with slight modifications[51]. Briefly, exponential phase MRSA ATCC 33591 culture was prepared in MHB medium as mentioned earlier and adjusted to OD600 = 1 (~10^9 CFU/mL) in PBS (10 mM sodium phosphate, 150 mM NaCl, pH 7.4). Thereafter, the cells were incubated at 37 °C with calcein-AM (2 μg/mL) in 10% MHB medium for 2 h. The calcein-loaded cells were washed once and re-suspended in PBS to OD600 = 0.5 (~10^8 CFU/mL). The cells were diluted 100× in PBS to get 3–5 × 10^5 CFU/mL and were incubated with different concentrations of test agents at 37 °C in dark for 2 h. Subsequently, calcein fluorescence was measured via flow cytometry (Becton Dickinson (BD) FACS verse, San Jose, CA) with excitation and emission wavelengths of 488 nm and 530 ± 30 nm, respectively. For each sample, 10,000 cells were acquired. As a positive control, melittin (10 μM) was assayed under identical conditions. The experiment was repeated on two different days and mean ± S.D. is presented here. […]
agar plates. The plates were incubated at 37 °C for 16-18 h and colonies were counted. […]

MRSA ATCC 33591 [4] = test: Resistance development over 17 serial passages at sub-MIC; type: cell-based, Staphylococcus aureus; conditions: at the 11th passage, constant up to the 17th passage
Method: For the experiment, a method as described previously was used with slight modifications. Briefly, for the experiment, on day 1 the initial MICs of all test agents were determined using routine MIC experiment protocol as described earlier. Next day, bacterial cells (100 μL) from the wells with concentrations 2–4 fold less than the MIC value for each test agent were used to set up fresh mid-log phase cultures in MHB medium for setting up the MIC plate. This was repeated for a total of 17 sub-lethal treatments with each antimicrobial agent. For every passage, corresponding glycerol stocks (15% v/v) were made for each culture and were kept at −80 °C for future use.

[5] = tested on: Methicillin-resistant S. epidermidis (ATCC 35984); test: microbe, parasite or virus in culture; type: cell-based, Staphylococcus epidermidis; conditions: Staphylococcus epidermidis, ATCC 35984 / MRSE; MRSE ATCC 35984; MHB, 2–5 × 10^5 CFU/mL, 16–18 h, 37 °C, OD600; read-out: Minimum inhibitory concentration, MIC
Procedure, shortened: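 Minimum inhibitory concentrations are determined by a modified broth microdilution in MHB, starting from 2–5 × 10^5 CFU/mL mid-log inoculum. Incubation runs 16–18 h at 37 °C with agitation, and growth is scored by 600 nm absorbance.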

Work on `CN[C@H](CC(C)C)C(=O)N[C@H]1C(=O)N[C@@H](CC(N)=O)C(=O)N[C@H]2C(=O)N[C@H]3C(=O)N[C@H](C(=O)N[C@H](C(=O)O)c4cc(O)cc(O)c4-c4cc3ccc4O)[C@H](O)c3ccc(c(Cl)c3)Oc3cc2cc(c3O[C@@H]2O[C@H](CO)[C@@H](O)[C@H](O)[C@H]2O[C@H]2C[C@](C)(N)[C@H](O)[C@H](C)O2)Oc2ccc(cc2Cl)[C@H]1O` [VAN, vancomycin] yielded an MIC (MRSA ATCC 33591 [1]; after 3 h pre-incubation at 37 °C with fetal bovine serum (50%, v/v), inoculum 2–5 × 10^5 CFU/mL, repeated on two days) of 1.4 µg/mL (≈ 0.966 µM), an MIC (MRSA ATCC 33591 [1]; after 3 h pre-incubation at 37 °C with mice plasma (50%, v/v), inoculum 2–5 × 10^5 CFU/mL, repeated on two days) of 1.4 µg/mL (≈ 0.966 µM) and an MIC (MRSA ATCC 33591 [1]; initial inoculum 10^7 CFU/mL, mid-log phase) of 2.8 µg/mL (≈ 1.93 µM). The “reduction of biomass (CV assay)” value (MRSA ATCC 33591 biofilm) was > 95%, the “Depolarization kinetics: time to increase in relative fluorescence intensity (RFI)” value (MRSA ATCC 33591 [2]; 4 × MIC, monitored for 5 min) was “RFI values similar to untreated control cells” and the “% depolarization relative to melittin control (10 μM, set as 100%)” value (MRSA ATCC 33591 [2]; at 4 × MIC) was 4.7 ± 4.1%. The “% depolarization relative to melittin control (10 μM, set as 100%)” value (MRSA ATCC 33591 [2]; at MIC) was 2.9 ± 4.8%, the “log reduction in viability” value (MRSA ATCC 33591 [3]) was “no reduction” and the “fold increase in MIC” value (MRSA ATCC 33591 [4]) was 8 fold. The MIC [5] was 2.8 µg/mL (≈ 1.93 µM).

Source: paper PMC5773577, “Novel Miniature Membrane Active Lipopeptidomimetics against Planktonic and Biofilm Embedded Methicillin-Resistant Staphylococcus aureus” (Scientific Reports, 2018)
